Where two headings read alike, the source gives them in different places. Values belong to the compound of their own block, whether it stands above or below them.
Experiments:
[1] = Penetration test using a Strat-M membrane in a Franz Cell, UPLC analysis
Method: In this study, exemplary actives with different hydrophilicity value were chosen. P is the partition coefficient, where a smaller P (more negative log P) indicates greater hydrophilicity. A penetration test was performed using a Strat-M® membrane, and the collected sample was then analyzed by Ultra-Performance Liquid Chromatography (UPLC). In the receptor chamber of a Franz Cell, 5.00 mL of the incubation medium was added as the collection phase. A Strat-M® membrane was loaded on top of the receptor chamber. The donor chamber was then added on top of the Strat-M® membrane, 0.80 mL of the crème was added to the donor chamber. […] At the end of that time period, 1.00 mL of the collection phase was withdrawn from the sampling port as the sample solution. The sample solution was filtered through a 0.45 micrometer (μm) syringe filter and then added into a 2.0 milliliter (mL) High Performance Liquid Chromatography (HPLC) vial. ACQUITY H UPLC from the Waters Corporation was used to analyze the collected samples from the Franz Cell study.
The amount of actives in the collection phase were analyzed by UPLC following the method described above.

[2] = cited from earlier work

effect of inclusion of the copolymer blend on delivery of the active [1]: enhanced the delivery
SMILES: O=C1O[C@H]([C@@H](O)CO)C(O)=C1O[C@H]1O[C@H](CO)[C@@H](O)[C@H](O)[C@H]1O [ascorbyl glucoside]
Active Log P [2]: −4.79

SMILES: Cn1c(=O)c2c(ncn2C)n(C)c1=O [caffeine]
% of Penetration ([1]; Franz Cell, room temperature, 48 hours): greater than 100%

effect of inclusion of the copolymer blend on delivery of the active ([1]; with versus without copolymer blend): did not enhance the delivery
SMILES: NC(=O)c1cccnc1 [niacinamide]

— patent publication US11291618B2, “Long wear skincare compositions” (priority 2019, dated 2022)
